Values joined by “and” are separate entries in the source; they are usually repeats but may differ in a detail not shown here. Identical values can stand only once.

Data set [1] relates to Male Sprague-Dawley rats. The data set is described as follows: Electroencephalogram recording and spectral analysis during continuous isoflurane. It counts as in vivo, rat. The following applies: droperidol 0.5 mg/kg IV; isoflurane 1.0%. As for the experimental part: Electroencephalogram electrode placement, recording, and spectral analysis. Extradural electroencephalogram electrodes were surgically implanted at least 7 days prior to recording. General anesthesia was induced with xylazine (5-10 mg/kg IP) and ketamine (50-100 mg/kg IP), and supplemented with isoflurane (1-2%). A microdrill was used to make four holes at the following stereotactic coordinates: A0L0, A6L3, A6L-3, and A10L2 relative to the lambda.^12 Polytetrafluoroethylene coated, 200 μm diameter stainless steel electrode wires (A-M Systems, Sequim, Wash.) were inserted and secured with small stainless steel screws, and permanently fixed with dental acrylic cement. Carprofen (5 mg/kg SC) was administered for analgesia on the day of surgery, as well as on post-operative days 1, and 2. The potential difference between electrodes A0L0 and A6L3, or between electrodes A0L0 and A6L-3 (whichever gave less motion artifact), was referenced to A10L2 and recorded using a QP511 Quad AC Amplifier System (Grass Instruments, West Warwick, R.I.) and a USB-6009 14-bit data acquisition board (National Instruments, Austin, Tex.). Data was filtered between 0.3-100 Hz. No line filter was used. The sampling rate was 512 Hz. After baseline recordings were taken for 10 minutes while awake, rats were anesthetized with isoflurane and placed in the anesthetizing chamber. […] Therefore the inventors performed the electroencephalogram experiments in the prone position with the isoflurane dose fixed at 1.0%. These modifications allowed us to minimize electroencephalogram motion artifacts without restraining the animals. After a minimum isoflurane exposure of 40 minutes, normal saline was administered and the temperature probe was removed. Five minutes later, methylphenidate was administered. Spectral analysis was performed using Matlab 7.11 (Mathworks, Natick, Mass.) and the Chronux software (Cold Spring Harbor, N.Y.). 13 Spectrograms were calculated using sliding windows of 2 sec duration stepped through 0.05 sec. For each window, multitaper spectrum estimation was performed using 5 tapers. […]

Data set [2] deals with Male Sprague-Dawley rats. The data set is described as follows: Return of righting during continuous isoflurane general anesthesia. It counts as in vivo, rat. The text has this: Anesthetizing Protocol. Rats were anesthetized in an induction chamber with 2-3% isoflurane in oxygen prior to placement of a lateral tail vein intravenous catheter (24 gauge, 19 mm). A rectal temperature probe was inserted and the animal was placed in a cylindrical acrylic anesthetizing chamber. The chamber was custom-built and equipped with ports for anesthetic gas delivery, sampling, and scavenging, as well as intravenous drug administration. A heating pad was placed under the chamber to keep the animal warm, and the body temperature was kept between 36.5° C. and 37.4° C.
The rat was positioned supine in the anesthetizing chamber and the inhaled concentration of isoflurane was initially fixed at 2.0% for 20 minutes, then reduced to 0.8% over 15-20 minutes, and then maintained at 0.8% for 40 minutes. If the rat made any purposeful movement, the isoflurane concentration was increased by 0.1% and maintained for another 40 minutes. This process was repeated until the final dose of isoflurane sufficient to maintain loss of righting reflex was established, and this dose was administered throughout the remainder of the experiment. This protocol was based on previously published methods described by Alkire et al.^4,11 After the final 40-minute equilibration period, normal saline (2 ml) was administered and the rectal temperature probe was removed. Five minutes later, methylphenidate was administered.
Prism 4.03 (Graphpad Software, San Diego, Calif.) and Matlab (Mathworks, Natick, Mass.) were used for statistical analysis and where possible, results are reported in terms of 95% confidence intervals based on z-tests, t-tests or Mann-Whitney tests. […] For this computation the inventors assumed a binomial model as the sampling density or likelihood function for the propensity of animals in a given group to have return of the righting response. The inventors took as the prior density for each group the uniform density on the interval (0, 1) because it is uninformative. Because of the conjugacy between the prior and the likelihood the posterior density for each group is a beta density.^17 The posterior densities for the differences in the proportion of animals that had return of righting were then computed by using standard Matlab simulation procedures. Instead of p-values for the Bayesian analyses the inventors computed the posterior probability that the propensity to right was greater in on group compared to the other.

Data set [3] deals with rats. The following applies: 3 mg/kg of droperidol; cited from earlier work.
Data set [4] has as its system mice. The following applies: cited from earlier work.
The subject of data set [5] is rats. Nature of the data set: D-MPH versus L-MPH reversal of isoflurane anesthesia, loss of righting reflex (LORR). The data set is classed as in vivo, rat. The following applies: for rats with restoration of consciousness: intravenous dose of 0.5 mg/kg; for rats with restoration of consciousness / rate of % recovery of consciousness / time to emergence, D-MPH compared with L-MPH: isoflurane anesthesia; for reversal of isoflurane-induced general anesthesia: intravenous, rat animal model; for rate of % recovery of consciousness / time to emergence, D-MPH compared with L-MPH: FIG. 7. The text has this: Pure D-MPH (Focalin) is currently available in oral form for Attention Deficit Hyperactivity Disorder (ADHD), but it is not available for intravenous use.

The subject of data set [6] is mice. Particulars: uninstrumented mice, rotating anesthetizing chamber; cited from earlier work.
The conditions of data set [7]: children treated with racemic methylphenidate; cited from earlier work.

Regarding `O=C(CCCN1CC=C(n2c(=O)[nH]c3ccccc32)CC1)c1ccc(F)cc1` [droperidol], the “EEG pattern change after droperidol” value with Male Sprague-Dawley rats [1] is “no appreciable change”. Besides, the “purposeful movement in response to droperidol” value with Male Sprague-Dawley rats [2] (droperidol 0.5 mg/kg IV, continuous isoflurane, n=6) was “None of the animals exhibited purposeful movement”. Also, the “effect on isoflurane potency” value in the data set on rats [3] was “no effect on isoflurane potency”. In the data set with mice [4], the “EC50 for loss of righting” value was 40 mg/kg.

For `COC(=O)[C@@H](c1ccccc1)[C@@H]1CCCCN1` [L-MPH, L-threo-methylphenidate], in the data set on rats [5], the “rats with restoration of consciousness” value was found to be 33% and the “reversal of isoflurane-induced general anesthesia” value is reported as “rapidly reversed isoflurane-induced general anesthesia”.

Take `FC(F)OC(Cl)C(F)(F)F` (stereo not shown) [isoflurane]: in the data set on Male Sprague-Dawley rats [2] (inhaled, rats, mean±SD), the “dose of isoflurane sufficient to maintain loss of righting” value is 0.9%±0.1% and 0.9%. Moreover, the “dose for loss of righting” value in the data set with mice [6] is 0.81%.

As for `COC(=O)C(c1ccccc1)C1CCCCN1` [D-MPH, D-threo-methylphenidate], in the data set with rats [5], the “rats with restoration of consciousness” value is on record as 83%; the “reversal of isoflurane-induced general anesthesia” value is given as “rapidly reversed isoflurane-induced general anesthesia”; the “rate of % recovery of consciousness / time to emergence, D-MPH compared with L-MPH” value is on record as “at a quicker rate than L-MPH”. Also, in the data set with rats [5] (listed as D-MGH), the “rate of % recovery of consciousness / time to emergence, D-MPH compared with L-MPH” value was “faster”. Besides, the “increase in plasma levels” value in data set [7] is listed as 5 fold.
